pIC50: −log10 of the molar value.
Tested on: 855422-203-R-J1-PDC spheroids with HUVEC/MSC, viability
Experiment: Anticancer human tumor 855422-203-R-J1-PDC patient-derived bladder carcinoma cell line growth inhibition [PI3K]
Conditions: for pIC50: curve of first compound; for viability, T/C: stronger effect = lower value
In short: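 Stroma-containing spheroids: tumor line, pooled-donor HUVEC, hMSC. Treatments: targeted agents with PI3K inhibitors. Dosing: clinically relevant, half-log spacing, 10 microM ceiling without known Cmax. Read-out: cell viability.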

[1] = second compound 0.00316 µM, first compound 0.0316 µM
[2] = second compound 0.00316 µM, first compound 0.1 µM
[3] = second compound 0.00316 µM, first compound 0.316 µM
[4] = second compound 0.00316 µM, first compound 1 µM
[5] = second compound 0.00316 µM, first compound 3.16 µM
[6] = second compound 0.00316 µM, first compound 10 µM
[7] = second compound 0.01 µM, first compound 0.0316 µM
[8] = second compound 0.01 µM, first compound 0.1 µM
[9] = second compound 0.01 µM, first compound 0.316 µM
[10] = second compound 0.01 µM, first compound 1 µM
[11] = second compound 0.01 µM, first compound 3.16 µM
[12] = second compound 0.01 µM, first compound 10 µM
[13] = second compound 0.0316 µM, first compound 0.0316 µM
[14] = second compound 0.0316 µM, first compound 0.1 µM
[15] = second compound 0.0316 µM, first compound 0.316 µM
[16] = second compound 0.0316 µM, first compound 1 µM
[17] = second compound 0.0316 µM, first compound 3.16 µM
[18] = second compound 0.0316 µM, first compound 10 µM
[19] = second compound 0.1 µM, first compound 0.0316 µM
[20] = second compound 0.1 µM, first compound 0.1 µM
[21] = second compound 0.1 µM, first compound 0.316 µM
[22] = second compound 0.1 µM, first compound 1 µM
[23] = second compound 0.1 µM, first compound 3.16 µM
[24] = second compound 0.1 µM, first compound 10 µM
[25] = second compound 0.316 µM, first compound 0.0316 µM
[26] = second compound 0.316 µM, first compound 0.1 µM
[27] = second compound 0.316 µM, first compound 0.316 µM
[28] = second compound 0.316 µM, first compound 1 µM
[29] = second compound 0.316 µM, first compound 3.16 µM
[30] = second compound 0.316 µM, first compound 10 µM
[31] = second compound 1 µM, first compound 0.0316 µM
[32] = second compound 1 µM, first compound 0.1 µM
[33] = second compound 1 µM, first compound 0.316 µM
[34] = second compound 1 µM, first compound 1 µM
[35] = second compound 1 µM, first compound 3.16 µM
[36] = second compound 1 µM, first compound 10 µM
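Also: agents incubated with spheroids for one week before read-out.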
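For viability, T/C in this document: 100% = DMSO vehicle-treated control wells.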

`CCCS(=O)(=O)Nc1ccc(F)c(C(=O)c2c[nH]c3ncc(-c4ccc(Cl)cc4)cc23)c1F` + CC(Nc1ccc2c(c1)OCCn1cc(N3C(=O)OCC3C(F)F)nc1-2)C(N)=O showed a pIC50 (second compound 0.00316 µM) of 5.48, a pIC50 (second compound 0.01 µM) of 5.34 and a pIC50 (second compound 0.0316 µM) of 5.34. For the same compound, the pIC50 (second compound 0.1 µM) was 5.45, the pIC50 (second compound 0.316 µM) was 6.01 and the pIC50 (second compound 1 µM) was over 7.50. It also gave a viability, T/C [1] of 110%, a viability, T/C [2] of 89.8% and a viability, T/C [3] of 104%. It also gave a viability, T/C [4] of 76.1%, a viability, T/C [5] of 52.6% and a viability, T/C [6] of 0.17%. It also gave a viability, T/C [7] of 99.2%, a viability, T/C [8] of 85.2% and a viability, T/C [9] of 91.8%. It also gave a viability, T/C [10] of 78.5%, a viability, T/C [11] of 75.8% and a viability, T/C [12] of 0.24%. For the same compound, the viability, T/C [13] was 92%, the viability, T/C [14] was 79.9% and the viability, T/C [15] was 98.7%. It also gave a viability, T/C [16] of 87.8%, a viability, T/C [17] of 72.5% and a viability, T/C [18] of 0.18%. For the same compound, the viability, T/C [19] was 77.2%, the viability, T/C [20] was 82% and the viability, T/C [21] was 74.4%. The viability, T/C [22] was 72%, the viability, T/C [23] was 56.7% and the viability, T/C [24] was 0.28%. For the same compound, the viability, T/C [25] was 58.9%, the viability, T/C [26] was 53.3% and the viability, T/C [27] was 54.9%. For the same compound, the viability, T/C [28] was 48.9%, the viability, T/C [29] was 37.1% and the viability, T/C [30] was 0.2%. The viability, T/C [31] was 36.7%, the viability, T/C [32] was 36.5% and the viability, T/C [33] was 34.2%. The viability, T/C [34] was 34.8%, the viability, T/C [35] was 24.1% and the viability, T/C [36] was 0.31%.

For `Cn1cnc2c(F)c(Nc3ccc(Br)cc3Cl)c(C(=O)NOCCO)cc21`, the viability, T/C (compound 0.00949 µM) was 100% [middle of 4 runs], the viability, T/C (compound 0.03 µM) was 94.8% [middle of 4 runs] and the viability, T/C (compound 0.0949 µM) was 101% [middle of 4 runs]. The viability, T/C (compound 0.3 µM) was 88% [middle of 4 runs], the viability, T/C (compound 0.949 µM) was 87.5% [middle of 4 runs] and the viability, T/C (compound 3 µM) was 47% [middle of 4 runs]. For the same compound, the IC50 (curve of compound) was 2.81 µM [middle of 4 runs].

Work on `Cn1ncc(Cl)c1-c1cc(C(=O)NC(CN)Cc2cccc(F)c2)sc1Cl` (stereo not drawn) + CC(Nc1ccc2c(c1)OCCn1cc(N3C(=O)OCC3C(F)F)nc1-2)C(N)=O yielded a pIC50 (second compound 0.00316 µM) of 6.21, a pIC50 (second compound 0.01 µM) of 6.15 and a pIC50 (second compound 0.0316 µM) of 6.25. For the same compound, the pIC50 (second compound 0.1 µM) was 6.59, the pIC50 (second compound 0.316 µM) was 7.45 and the pIC50 (second compound 1 µM) was over 7.50. The viability, T/C [1] was 88%, the viability, T/C [2] was 65.1% and the viability, T/C [3] was 60.5%. For the same compound, the viability, T/C [4] was 43.6%, the viability, T/C [5] was 31.9% and the viability, T/C [6] was 6.62%. It also gave a viability, T/C [7] of 89.3%, a viability, T/C [8] of 72.4% and a viability, T/C [9] of 64.7%. For the same compound, the viability, T/C [10] was 44.9%, the viability, T/C [11] was 25.7% and the viability, T/C [12] was 8.23%. The viability, T/C [13] was 75.7%, the viability, T/C [14] was 62.9% and the viability, T/C [15] was 56.5%. The viability, T/C [16] was 47.7%, the viability, T/C [17] was 22.9% and the viability, T/C [18] was 5.89%. For the same compound, the viability, T/C [19] was 64.5%, the viability, T/C [20] was 61.6% and the viability, T/C [21] was 40.3%. For the same compound, the viability, T/C [22] was 42.9%, the viability, T/C [23] was 19.8% and the viability, T/C [24] was 3.42%. It also gave a viability, T/C [25] of 50.2%, a viability, T/C [26] of 50.2% and a viability, T/C [27] of 34.2%. It also gave a viability, T/C [28] of 39.2%, a viability, T/C [29] of 16.1% and a viability, T/C [30] of 1.76%. For the same compound, the viability, T/C [31] was 38.1%, the viability, T/C [32] was 29% and the viability, T/C [33] was 32.4%. It also gave a viability, T/C [34] of 24.4%, a viability, T/C [35] of 12.2% and a viability, T/C [36] of 1.17%.

Compound `CC(C)n1nc(-c2ccc3oc(N)nc3c2)c2c(N)ncnc21` + COc1c(OCCCN2CCOCC2)ccc2c3n(c(=NC(=O)c4cnc(N)nc4)nc12)CCN3 has a pIC50 (second compound 0.00316 µM) of 7.33, a pIC50 (second compound 0.01 µM) of 7.50 and a pIC50 (second compound 0.0316 µM) of 7.97. For the same compound, the pIC50 (second compound 0.1 µM) was over 9.50, the pIC50 (second compound 0.316 µM) was over 9.50 and the pIC50 (second compound 1 µM) was over 9.50. For the same compound, the viability, T/C (second compound 0.00316 µM, first compound 0.000316 µM) was 106%, the viability, T/C (second compound 0.00316 µM, first compound 0.001 µM) was 88.3% and the viability, T/C (second compound 0.00316 µM, first compound 0.00316 µM) was 94.4%. It also gave a viability, T/C (second compound 0.00316 µM, first compound 0.01 µM) of 81.5%, a viability, T/C [1] of 72.6% and a viability, T/C [2] of 14.6%. The viability, T/C (second compound 0.01 µM, first compound 0.000316 µM) was 89.6%, the viability, T/C (second compound 0.01 µM, first compound 0.001 µM) was 87.7% and the viability, T/C (second compound 0.01 µM, first compound 0.00316 µM) was 90.3%. For the same compound, the viability, T/C (second compound 0.01 µM, first compound 0.01 µM) was 86.5%, the viability, T/C [7] was 49.7% and the viability, T/C [8] was 10.4%. It also gave a viability, T/C (second compound 0.0316 µM, first compound 0.000316 µM) of 72.1%, a viability, T/C (second compound 0.0316 µM, first compound 0.001 µM) of 68.8% and a viability, T/C (second compound 0.0316 µM, first compound 0.00316 µM) of 56.8%. It also gave a viability, T/C (second compound 0.0316 µM, first compound 0.01 µM) of 53%, a viability, T/C [13] of 34.5% and a viability, T/C [14] of 7.16%. For the same compound, the viability, T/C (second compound 0.1 µM, first compound 0.000316 µM) was 33.4%, the viability, T/C (second compound 0.1 µM, first compound 0.001 µM) was 30.8% and the viability, T/C (second compound 0.1 µM, first compound 0.00316 µM) was 33.1%. The viability, T/C (second compound 0.1 µM, first compound 0.01 µM) was 29.3%, the viability, T/C [19] was 19.1% and the viability, T/C [20] was 4.35%. The viability, T/C (second compound 0.316 µM, first compound 0.000316 µM) was 11.2%, the viability, T/C (second compound 0.316 µM, first compound 0.001 µM) was 10.2% and the viability, T/C (second compound 0.316 µM, first compound 0.00316 µM) was 9.76%. The viability, T/C (second compound 0.316 µM, first compound 0.01 µM) was 9.27%, the viability, T/C [25] was 5.64% and the viability, T/C [26] was 2.5%. For the same compound, the viability, T/C (second compound 1 µM, first compound 0.000316 µM) was 5.23%, the viability, T/C (second compound 1 µM, first compound 0.001 µM) was 5.41% and the viability, T/C (second compound 1 µM, first compound 0.00316 µM) was 4.21%. For the same compound, the viability, T/C (second compound 1 µM, first compound 0.01 µM) was 4.46%, the viability, T/C [31] was 3.47% and the viability, T/C [32] was 1.3%.
